According to patent US20060217308A1, “Compositions for the treatment of tumor pathologies, comprising internalin B (ln1B) of Listeria monocytogene protein or a fragment thereof” (priority 2005, published 2006):

Columns and labels:
Met [1] = assay: Effect of proteasome and lysosome inhibitors on In1B-dependent degradation of Met; format: cell-based, human; details: HeLa cells pre-treated with inhibitor before addition of In1B; anti-Met immunoblot
Description: (A) Hela cells were treated (+) with […] epoximycin, […] clasto-lactacystin-β-lactone (lactone), 20 mM ammonium chloride, or 5 μM bafilomycin A1 (Baf-A1) for 90 minutes before addition of In1B. Cell extracts were loaded in a SDS-PAGE gel followed by immunoblot with anti-Met antibody. […] (B) Surface exposed proteins of Hela cells were biotinylated (Biot +) before addition of In1B. In1B was added for two minutes to allow internalization of Met, then cells were washed and biotin was removed (see methods and text) from the surface. Samples were precipitated with neutravidin agarose and blotted against Met.
Mono-ubiquitination is the signal that induces endocytosis of RTKs after ligand binding and usually drives cargo proteins to lysosomal degradation (6, 17, 34). To study whether In1B-dependent degradation of Met is a proteasomal or a lysosomal event, HeLa cells were treated with clasto-p-lactacystin lactone or epoximycin, two inhibitors of proteasome degradation, and ammonium chloride or bafilomycin A1, two inhibitors of lysosome degradation, […] before the addition of In1B. Cellular extracts were then immunoblotted using anti Met antibodies (FIG. 4).

[2] = test system: poly-ubiquitinated proteins; assay: FK1 functionality test: poly-ubiquitin immunoblot of HeLa cells treated with proteasome inhibitors; format: cell-based, human; details: 60 minutes treatment, versus non-treated
Description: (A) In1B was added (+) to HeLa cells. Lysates were immunoprecipitated using C12 rabbit polyclonal anti-Met antibody and blotted against Met (DL21 mAb). The same membrane was stripped and blotted against ubiquitin using FK1, a mAb that recognizes poly-ubiquitinated proteins, or P4D1, a mAb that recognizes both poly- and mono-ubiquitinated proteins. (B) Total cell extracts from Hela cells treated with […] epoximycin (lane 2) or […] clasto-lactacystin-β-lactone (lane 3) for 60 minutes, or non-treated cells (lane 1) were blotted against poly-ubiquitin (FK1) or actin. (C) ubiquitin ladder was blotted with FK1 or P4D1. The number of ubiquitin modules is indicated on the right. The molecular weight of protein markers is shown in the left of the panels, in kDa. In D and E, Hela Cells were transfected with siRNA to knock down Cbl expression (RNAi), or with RNA control (Control). (D) Cellular Cbl and actin were detected by immunoblotting. […]
The rapid degradation of Met after In B contact is different from the HGF-dependent degradation, which has been reported to take two hours (19-21), indicating differences in the biochemistry of the process. […] Samples from HeLa cells treated with In1B (5 nM) were immunoprecipitated using an anti-Met antibody, and then Met-immunoprecipitates were analyzed with an anti Met mAb (FIG. 3A1), FK1 (FIG. 3A2) or P4D1 (FIG. 3A3). […]

Met [3] = molecular target: Met (Homo sapiens, UniProt P08581); details: comparison with In1B; cited from earlier work
Chain of Met (Homo sapiens, UniProt P08581) (P08581 25-1390): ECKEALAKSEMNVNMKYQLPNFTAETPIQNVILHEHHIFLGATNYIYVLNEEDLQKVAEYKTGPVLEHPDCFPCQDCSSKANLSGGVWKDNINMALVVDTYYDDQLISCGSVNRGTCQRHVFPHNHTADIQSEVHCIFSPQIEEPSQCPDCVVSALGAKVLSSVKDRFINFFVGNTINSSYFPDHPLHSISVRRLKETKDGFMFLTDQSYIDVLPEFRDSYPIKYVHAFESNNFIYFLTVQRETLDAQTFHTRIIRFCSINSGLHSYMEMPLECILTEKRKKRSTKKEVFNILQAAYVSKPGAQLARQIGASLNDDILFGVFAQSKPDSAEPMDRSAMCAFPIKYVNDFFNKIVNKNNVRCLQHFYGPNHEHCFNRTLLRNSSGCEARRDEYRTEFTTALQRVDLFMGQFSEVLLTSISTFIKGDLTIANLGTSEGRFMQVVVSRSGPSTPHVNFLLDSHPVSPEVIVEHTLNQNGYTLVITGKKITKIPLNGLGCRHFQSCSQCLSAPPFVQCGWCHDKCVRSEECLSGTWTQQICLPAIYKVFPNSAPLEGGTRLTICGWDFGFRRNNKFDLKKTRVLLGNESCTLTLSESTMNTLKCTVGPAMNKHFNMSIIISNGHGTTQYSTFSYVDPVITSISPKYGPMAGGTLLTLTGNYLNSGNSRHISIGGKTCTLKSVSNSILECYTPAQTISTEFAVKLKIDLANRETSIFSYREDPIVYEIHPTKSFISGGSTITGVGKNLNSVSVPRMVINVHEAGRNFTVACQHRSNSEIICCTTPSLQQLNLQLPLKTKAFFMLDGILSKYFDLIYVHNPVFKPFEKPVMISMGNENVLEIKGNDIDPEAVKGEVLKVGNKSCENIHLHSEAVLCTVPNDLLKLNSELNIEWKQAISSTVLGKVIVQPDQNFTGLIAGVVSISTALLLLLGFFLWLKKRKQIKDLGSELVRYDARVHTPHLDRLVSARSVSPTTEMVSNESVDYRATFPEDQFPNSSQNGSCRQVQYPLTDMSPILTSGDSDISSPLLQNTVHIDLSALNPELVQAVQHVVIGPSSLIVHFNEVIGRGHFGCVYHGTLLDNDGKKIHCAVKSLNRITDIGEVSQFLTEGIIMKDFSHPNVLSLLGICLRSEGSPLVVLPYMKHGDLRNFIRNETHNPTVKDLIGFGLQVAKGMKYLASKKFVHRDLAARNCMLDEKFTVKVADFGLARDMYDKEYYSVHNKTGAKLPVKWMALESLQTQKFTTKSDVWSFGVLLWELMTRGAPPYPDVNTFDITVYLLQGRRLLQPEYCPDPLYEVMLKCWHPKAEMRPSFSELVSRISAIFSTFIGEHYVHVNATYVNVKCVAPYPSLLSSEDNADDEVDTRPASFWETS

[4] = molecular target: Met (hepatocyte growth factor receptor), endogenous in human HeLa cells (human) (UniProt P08581); assay: cell-based or functional assay
Chain of Met (hepatocyte growth factor receptor), endogenous in human HeLa cells (human) (P08581 25-1390): as above

Met [5] = assay: Effect of cycloheximide on In1B-dependent degradation and de-novo synthesis of Met; format: cell-based, human; details: HeLa cells pre-treated 90 minutes before In1B
Description: FIG. 2 depicts the degradation and de-novo synthesis of Met. (A) HeLa cells were treated at the indicated times with 5 nM In1B and cellular extracts were blotted against Met. (B) Cells were treated as in A, but blotted at the same time with anti-Met antibody and Streptavidin. Stars indicate nonspecific bands recognized by streptavidin and the square indicates Met. (C) The experiment was performed as in A, but cells were pre-treated with […] of cycloheximide for 90 minutes before addition of In1B. (D) This experiment was performed as in A, but In1B was removed three minutes after it was added. Actin is shown as the loading control in A, C and D. The molecular mass of the markers is indicated in kDa.
In order to determine whether de-novo synthesis of Met occurred after In1B dependent-degradation, HeLa cells were pre-treated with cycloheximide, which inhibits protein synthesis, for 90 minutes before exposure to In1B.

CC(C)[C@H](O)[C@@]12NC(=O)[C@H](C)[C@@H]1OC2=O [clasto-lactacystin-β-lactone]
effect of inhibitor on In1B-dependent degradation of Met (Met [1]): did not inhibit | poly-ubiquitin (FK1) signal in cells treated with proteasome inhibitor [2]: stronger signals

CC[C@H](C)[C@H](NC(=O)[C@H]([C@@H](C)CC)N(C)C(C)=O)C(=O)N[C@H](C(=O)N[C@@H](CC(C)C)C(=O)[C@@]1(C)CO1)[C@@H](C)O [epoximycin]
effect of inhibitor on In1B-dependent degradation of Met (Met [1]): did not inhibit | poly-ubiquitin (FK1) signal in cells treated with proteasome inhibitor [2]: stronger signals

HGF: Met ligand (hepatocyte growth factor)
time needed for a similar rate of Met degradation after activation with HGF (Met [3]): two to five and two

In1B (internalin B) of Listeria monocytogenes, purified soluble protein (ligand)
Met phosphorylation (blot against phospho-tyrosine) [4]: 2 min | kinetics of In1B-dependent ubiquitination of Met [4]: 2 min | minimal amount of In1B necessary to trigger Met ubiquitination [4]: 1.75 nM

CO/C1=C\C(C)=C\[C@@H](C)[C@@H](O)[C@@H](C)C/C(C)=C/C=C/[C@H](OC)[C@@H]([C@@H](C)[C@@H](O)[C@H](C)[C@@]2(O)C[C@@H](O)[C@H](C)[C@@H](C(C)C)O2)OC1=O [bafilomycin A1]
effect of inhibitor on In1B-dependent degradation of Met (Met [1]): significantly protected Met from degradation

C[C@@H]1C[C@@H]([C@H](O)CC2CC(=O)NC(=O)C2)C(=O)[C@@H](C)C1 [cycloheximide]
effect of cycloheximide on In1B-dependent degradation of Met (Met [5]): did not prevent | effect of cycloheximide on de-novo synthesis of Met after In1B (Met [5]): strongly hampered

Cl.N [ammonium chloride]
effect of inhibitor on In1B-dependent degradation of Met (Met [1]): significantly protected Met from degradation
